Laboratory results taken from patent publication US6872724B2, “Polymorphs with tyrosine kinase activity” (Merck & Co., Inc., priority 2002, dated 2005).

Target: T1, human KDR (Homo sapiens, UniProt P35968)
T1 construct: cloning the cytoplasmic domain of the KDR kinase as an in frame fusion at the carboxy terminus of the GST gene; made in house; host or cells: Spodoptera frugiperda (Sf21) insect cells, baculovirus vector pAcG2T
Assay: VEGF receptor kinase assay
Type: biochemical
Procedure: I. VEGF Receptor Kinase Assay
VEGF receptor kinase activity is measured by incorporation of radio-labeled phosphate into polyglutamic acid, tyrosine, 4:1 (pEY) substrate. The phosphorylated pEY product is trapped onto a filter membrane and the incorporation of radio-labeled phosphate quantified by scintillation counting.
VEGF Receptor Kinase The intracellular tyrosine kinase domains of human KDR (Terman, B. I. et al. Oncogene (1991) vol. 6, pp. 1677-1683.) and Flt-1 (Shibuya, M. et al. Oncogene (1990) vol. 5, pp. 519-524) were cloned as glutathione S-transferase (GST) gene fusion proteins. This was accomplished by cloning the cytoplasmic domain of the KDR kinase as an in frame fusion at the carboxy terminus of the GST gene. Soluble recombinant GST-kinase domain fusion proteins were expressed in Spodoptera frugiperda (Sf21) insect cells (Invitrogen) using a baculovirus expression vector (pAcG2T, Pharmingen). […]

T1 sequence (P35968 786-1356 limits assumed): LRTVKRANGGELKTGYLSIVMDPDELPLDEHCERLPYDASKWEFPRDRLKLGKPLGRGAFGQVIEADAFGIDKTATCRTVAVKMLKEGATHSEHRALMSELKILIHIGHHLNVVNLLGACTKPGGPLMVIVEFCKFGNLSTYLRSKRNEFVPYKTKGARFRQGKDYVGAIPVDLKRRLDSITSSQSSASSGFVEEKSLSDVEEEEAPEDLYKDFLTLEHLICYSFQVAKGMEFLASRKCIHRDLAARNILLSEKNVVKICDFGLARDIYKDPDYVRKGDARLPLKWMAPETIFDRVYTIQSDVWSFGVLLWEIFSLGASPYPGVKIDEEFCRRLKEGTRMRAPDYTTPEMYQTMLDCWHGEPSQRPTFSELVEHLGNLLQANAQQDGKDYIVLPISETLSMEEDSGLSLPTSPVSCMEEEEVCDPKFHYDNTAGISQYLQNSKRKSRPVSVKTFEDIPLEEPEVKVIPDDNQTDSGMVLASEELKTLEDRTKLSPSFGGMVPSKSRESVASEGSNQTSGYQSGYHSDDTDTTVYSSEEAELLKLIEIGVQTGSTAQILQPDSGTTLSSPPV

`CNC(=O)N1CCN(Cc2ccnc(Nc3ncc(C#N)s3)c2)CC1` [Compound 4-4, 4-[2-(5-cyano-thiazol-2-ylamino)-pyridin-4-ylmethyl]-piperazine-1-carboxylic acid methylamide] was tested, and the kinase inhibitory activity was “inhibits the kinase KDR”.
